The values below are quoted from earlier work in US20130225598A1, “Stabilized Amorphous Forms of Imatinib Mesylate” (Novartis AG, priority 2007, published 2013).

For this data set the following is noted: at temperatures below 140 ° C.

Regarding `CS(=O)(=O)O.Cc1ccc(NC(=O)c2ccc(CN3CCN(C)CC3)cc2)cc1Nc1nccc(-c2cccnc2)n1` [4-(4-methylpiperazin-1-ylmethyl)-N-[4-methyl-3-(4-(pyridin-3-yl)-pyrimidin-2-ylamino-)phenyl]-benzamide mesylate], the “thermodynamic stability relative to alpha crystal form” value is “thermodynamically more stable than the alpha form”.
